Assay results as given in PMC5897531, “Identification of an Alarm Pheromone-Binding Chemosensory Protein From the Invasive Sycamore Lace Bug Corythucha ciliata (Say)” (Frontiers in Physiology, 2018).
Read-outs that look alike come from different tables or passages of the source. Marks after values point to notes of the source that are not given here.

Experiments:
sycamore lace bug nymphs [1] = assay: Petri dish test, behavioral response of nymphs; format: in vivo, Corythucha ciliata; settings: for Chi-square value, choice of nymphs: compound vs. hexane, 20 μl on filter paper, 5 min; for behavioral response of nymphs: petri dish
Protocol: One test was conducted in a petri dish (15 cm diameter) at 22–26°C. Two filter papers (3 cm diameter) were placed symmetrically on both sides of the petri dish. 20 μl of the compound to be tested (1, 0.1 or 0.01 μg/μl) was added to one filter paper. 20 μl hexane was added as a control to the other filter paper. The filter papers were placed at a distance of 5 cm from the start position at the center of the petri dish where 40 sycamore lace bug nymphs were released. The number of nymphs on each filter paper was recorded after 5 min. Each assay was replicated four times with a new petri dish for each replicate. The choice between hexane and a blank was also tested. […] The numbers of insect on each filter paper were compared using chi-square analysis.

CcilCSP2 = CcilCSP2 (Corythucha ciliata, UniProt A0A2S0M1B9); assay: Fluorescence competitive binding assay with 1-NPN
Protocol: Briefly, the sequence of CcilCSP2 encoding the mature CSP protein was expressed in Escherichia coli BL21 (DE3) competent cells (Transgen). Cells were grown at 37°C until OD600 ≈ 0.60, when expression was induced with 1 mM IPTG. After incubating an additional 8 h at 28°C, cells were harvested by centrifugation. The purification of CcilCSP2 was performed using HisTrap affinity columns (GE Healthcare Biosciences, Uppsala, Sweden).

c18915_g1 = molecular target: T1, c18915_g1 (Corythucha ciliata, UniProt A0A2S0M1C0); assay: direct fluorescence titration; format: binding; settings: fluorescent probe; conditions presumably as for CcilCSP2
T1 construct: gene CSP8; full length 133 aa
T1 sequence (A0A2S0M1C0 22-133): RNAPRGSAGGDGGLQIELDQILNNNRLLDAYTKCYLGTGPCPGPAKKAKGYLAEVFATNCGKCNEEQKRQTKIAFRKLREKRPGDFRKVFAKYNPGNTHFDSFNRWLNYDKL

sycamore lace bug nymphs [2] = assay: Plant leaf test, repellency rate of nymphs; format: in vivo, Corythucha ciliata; settings: for behavioral response of nymphs: plant leaves
Protocol: To further confirm the behavioral effects of each active substance, the behavioral response of sycamore lace bug nymphs was tested by directly applying the compounds to a P. × acerifolia leaf. […] Photographs were then taken at 0, 2, and 4 min to assess the repellency rate, which was calculated using the following formula: Repellency rate = M/T^*100, where T = the total number of sycamore lace bug nymphs in the tested colony at 0 min, and M = the number of sycamore lace bug nymphs that had moved at 2 or 4 min. Experimental conditions were the same as for the petri dish experiments. Hexane was used as the mock treatment. The repellency rates of the nymphs in each treatment were compared using a Kruskal Wallis H-test followed by Mann-Whitney U-tests.

sycamore lace bug adults = assay: Y-shaped olfactometer, behavioral response of adults; format: in vivo, Corythucha ciliata; settings: Y-tube; for χ2, choice of adults: P > 0.05; for behavioral response of adults: 1 and 0.1 μg/μl
Protocol: Compounds that potentially bind with high affinity to CSPs were purchased from Sigma (St Louis, MO, USA) to test their effects on sycamore lace bug behavior. The behavioral response of sycamore lace bug adults (1:1 sex ratio) was assessed using a Y-shaped olfactometer. The length of the arms and the diameter of the tube were 10 and 5 cm, respectively. The authentic standards were dissolved in hexane at concentrations of 1 and 0.1 μg/μl. Then 10 μl of solution was applied to a 1 cm^2 filter paper. The filter paper was placed in one arm of the Y-shaped olfactometer, and 10 μl hexane was placed in the other arm as a control. The amount of airflow was set at 250 ml/min. In each experiment, a single sycamore lace bug adult was released at the base of the olfactometer stem and observed for 10 min. During this time, insects not making any choice were recorded as having “no response”. Insects entering more than halfway into the olfactometer arm and staying for at least 10 s were recorded as having a “response”. After 10 insects were tested, the orientation of the Y-shaped olfactometer was reversed to avoid environmental effects, and the inner wall was cleaned with degreased cotton containing acetone, washed with ethanol, and then washed with distilled water and dried in an oven. The experiment was conducted in a behavioral observation chamber at 26°C. The experiment was repeated seven times, and each time the behavior of 10 insects was tested. The choice of insects between chemicals and hexane was compared using chi-square analysis.

sycamore lace bug nymphs [3] = assay: Petri dish test, behavioral response of nymphs; format: in vivo, Corythucha ciliata; settings: Geraniol vs. Phenyl benzoate

Sequence of CcilCSP2 (A0A2S0M1B9 entry or part of it): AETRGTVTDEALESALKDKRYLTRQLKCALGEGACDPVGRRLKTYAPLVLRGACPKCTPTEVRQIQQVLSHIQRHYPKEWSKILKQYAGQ

## Cc1ccc(C(C)C)cc1 [p-Cymene]
Sycamore lace bug nymphs [1]; 0.01 μg/μl
  Chi-square value, choice of nymphs: 0.083
Sycamore lace bug nymphs [1]; 0.1 μg/μl
  Chi-square value, choice of nymphs: 0.026
Sycamore lace bug nymphs [1]; 1 μg/μl
  Chi-square value, choice of nymphs: 0.048

## c1ccc(Nc2cccc3ccccc23)cc1 [1-NPN, N-Phenyl-1-naphthylamine]
CcilCSP2
  Kd: 2.08 µM

## c1ccc2ccccc2c1 [Naphthalene]
Sycamore lace bug nymphs [1]; 0.01 μg/μl
  Chi-square value, choice of nymphs: 0.243
Sycamore lace bug nymphs [1]; 0.1 μg/μl
  Chi-square value, choice of nymphs: 1.190
Sycamore lace bug nymphs [1]; 1 μg/μl
  Chi-square value, choice of nymphs: 0.333

## Cc1ccc(C(C)C)c(O)c1 [Thymol]
Sycamore lace bug nymphs [1]; 0.01 μg/μl
  Chi-square value, choice of nymphs: 0.400
Sycamore lace bug nymphs [1]; 0.1 μg/μl
  Chi-square value, choice of nymphs: 0.111
Sycamore lace bug nymphs [1]; 1 μg/μl
  Chi-square value, choice of nymphs: 0.125

## c1ccc(Nc2cccc3ccccc23)cc1 [1-NPN]
c18915_g1
  Kd: Affinity of c18915_g1 for 1-NPN

## O=C(Oc1ccccc1)c1ccccc1 [Phenyl benzoate]
Sycamore lace bug nymphs [1]; 0.01 μg/μl
  Chi-square value, choice of nymphs: 0.615
Sycamore lace bug nymphs [1]; 0.1 μg/μl
  Chi-square value, choice of nymphs: 14.629^**
Sycamore lace bug nymphs [1]; 1 μg/μl
  Chi-square value, choice of nymphs: 5.818^*
Sycamore lace bug nymphs [1]
  behavioral response of nymphs: significantly repelled
Sycamore lace bug nymphs [2]; 2 min, 0.01 μg/μl
  repellency rate: 12%
Sycamore lace bug nymphs [2]; 2 min, 0.1 μg/μl
  repellency rate: 50%^*
Sycamore lace bug nymphs [2]; 2 min, 1 μg/μl
  repellency rate: 63.16%^*
Sycamore lace bug nymphs [2]; 4 min, 0.01 μg/μl
  repellency rate: 13%
Sycamore lace bug nymphs [2]; 4 min, 0.1 μg/μl
  repellency rate: 57.14%^*
Sycamore lace bug nymphs [2]; 4 min, 1 μg/μl
  repellency rate: 73.68%^*
Sycamore lace bug nymphs [2]
  behavioral response of nymphs: repellent effect of phenyl benzoate was further confirmed
Sycamore lace bug adults; 0.1 μg/μl vs. hexane
  χ2, choice of adults: 0.083
Sycamore lace bug adults; 1 μg/μl vs. hexane
  χ2, choice of adults: 0.176
Sycamore lace bug adults
  behavioral response of adults: not significant
CcilCSP2; competitive binding
  Displacement of 1-NPN: more than 50%
CcilCSP2; competitive binding, 1-NPN as fluorescent reporter, calculated from IC50, read-out: KD
  Kd: 13.9 µM

## CC(C)=CCC/C(C)=C/CO [Geraniol, E-3,7-dimethyl-2,6-octadien-1-ol, reference compound]
Sycamore lace bug nymphs [1]; 0.01 μg/μl
  Chi-square value, choice of nymphs: 5.444^a^*
Sycamore lace bug nymphs [1]; 0.1 μg/μl
  Chi-square value, choice of nymphs: 10.965^**
Sycamore lace bug nymphs [1]; 1 μg/μl
  Chi-square value, choice of nymphs: 13.928^**
Sycamore lace bug nymphs [1]
  behavioral response of nymphs: significantly repelled
Sycamore lace bug nymphs [2]; 2 min, 0.01 μg/μl
  repellency rate: 25%^*
Sycamore lace bug nymphs [2]; 2 min, 0.1 μg/μl
  repellency rate: 50%^*
Sycamore lace bug nymphs [2]; 2 min, 1 μg/μl
  repellency rate: 72.41%^*
Sycamore lace bug nymphs [2]; 4 min, 0.01 μg/μl
  repellency rate: 25%^*
Sycamore lace bug nymphs [2]; 4 min, 0.1 μg/μl
  repellency rate: 57.14%^*
Sycamore lace bug nymphs [2]; 4 min, 1 μg/μl
  repellency rate: 79.41%^*
Sycamore lace bug nymphs [2]
  behavioral response of nymphs: significantly repelled
Sycamore lace bug adults; 0.1 μg/μl vs. hexane
  χ2, choice of adults: 1.52
Sycamore lace bug adults; 1 μg/μl vs. hexane
  χ2, choice of adults: 0.069
Sycamore lace bug adults
  behavioral response of adults: not significantly affected
CcilCSP2
  Kd: 15.2 µM
CcilCSP2; competitive binding
  Displacement of 1-NPN: more than 50%
Sycamore lace bug nymphs [3]; 0.01 μg/μl
  Chi-square value, choice of nymphs: 0.214
Sycamore lace bug nymphs [3]; 0.1 μg/μl
  Chi-square value, choice of nymphs: 0.267
Sycamore lace bug nymphs [3]; 1 μg/μl
  Chi-square value, choice of nymphs: 0.083
